Read-outs that look alike come from different tables or passages of the source.
How the values were obtained:
[1] = DPPH radical scavenging activity; details: DPPH radical scavenging, 30 min, 25 °C
Description: The DPPH assay is used conventionally to quantify a compound’s ability to trap free radicals.
The compounds were evaluated for their ability to scavenge stable DPPH radicals, using a modification of the method by Turkoglu et al..

[2] = Ferric reducing antioxidant power (FRAP); details: ferric reducing antioxidant power
Description: FRAP is a ferric (Fe^3+) to ferrous (Fe^2+) ions reduction assay that measures a compound’s electron-donating capacity, i.e., the antioxidant’s reducing power.
The mixture was incubated at 50 °C for 20 min, followed by acidification with 100 μL trichloroacetic acid (10%). After centrifugation at 3500 rpm for 10 min, 200 μL of the supernatant was transferred into another test tube containing 200 μL of distilled water and 0.8 mL of FeCl3 (0.1%). Finally, the absorbance was read at 700 nm, and the total reductive antioxidant power was calculated thus: Ferric reducing antioxidant power (%)=Absorbance of compound/Absorbance of 500µM gallic acid×100

[3] = Nitric oxide (NO) scavenging activity; details: nitric oxide radical scavenging, 37 °C, 2 h
Description: The screening of the present compound series for NO radical scavenging activity (Table 2) identified excellent NO scavengers.
The antioxidant capacity of the compounds to scavenge nitric oxide radicals was determined using a modified version of the protocol by Kurian et al.. Briefly, 250 μL of sodium nitroprusside (10 mM) prepared in sodium phosphate buffer (pH 7.4) was added to 500 μL of the compound solution (62.5–500 μM) or distilled water (control). The resulting solution was incubated at 37 °C for 2 h. Then, 250 μL of Griess reagent was added to the reaction mixture before the absorbance was measured at 546 nm. The nitric oxide scavenging activity of the compounds was calculated with the formula: Nitric oxide scavenging (%)=1−Absorbance of compound/Absorbance of control×100

α-glucosidase [4] = target: T1, α-glucosidase (Saccharomyces cerevisiae, UniProt P38158); assay: biochemical; details: pNPG substrate, pH 6.8, 37 °C; read-out: IC50 α-Glucosidase
T1 construct: purchased Merck
T1 sequence (P38158 whole entry): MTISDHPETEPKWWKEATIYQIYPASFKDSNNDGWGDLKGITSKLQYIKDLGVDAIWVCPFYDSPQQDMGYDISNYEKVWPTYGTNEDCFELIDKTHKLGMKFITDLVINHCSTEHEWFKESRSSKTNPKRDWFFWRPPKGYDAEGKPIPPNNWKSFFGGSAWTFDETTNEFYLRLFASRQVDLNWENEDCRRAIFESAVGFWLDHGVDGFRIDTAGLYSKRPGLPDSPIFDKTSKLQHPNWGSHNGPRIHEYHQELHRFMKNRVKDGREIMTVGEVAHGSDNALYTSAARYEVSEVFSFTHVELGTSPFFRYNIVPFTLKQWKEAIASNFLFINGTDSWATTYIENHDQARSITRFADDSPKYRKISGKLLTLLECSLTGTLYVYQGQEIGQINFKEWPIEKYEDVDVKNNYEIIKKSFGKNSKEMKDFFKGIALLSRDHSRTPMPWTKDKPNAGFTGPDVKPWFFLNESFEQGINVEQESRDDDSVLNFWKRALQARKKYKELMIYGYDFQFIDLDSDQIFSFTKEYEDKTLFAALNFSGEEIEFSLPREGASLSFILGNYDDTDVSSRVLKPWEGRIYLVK
Description: The α-glucosidase inhibitory activity was evaluated using a previous method with slight modifications.

[5] = target: T2, porcine pancreatic amylase (Sus scrofa, UniProt P00690); assay: α-Amylase inhibitory activity (starch/DNS); assay type: biochemical; details: porcine pancreatic amylase, starch, pH 6.9, 25 °C; read-out: IC50 α-Amylase
T2 construct: purchased Merck
T2 sequence (P00690 16-511): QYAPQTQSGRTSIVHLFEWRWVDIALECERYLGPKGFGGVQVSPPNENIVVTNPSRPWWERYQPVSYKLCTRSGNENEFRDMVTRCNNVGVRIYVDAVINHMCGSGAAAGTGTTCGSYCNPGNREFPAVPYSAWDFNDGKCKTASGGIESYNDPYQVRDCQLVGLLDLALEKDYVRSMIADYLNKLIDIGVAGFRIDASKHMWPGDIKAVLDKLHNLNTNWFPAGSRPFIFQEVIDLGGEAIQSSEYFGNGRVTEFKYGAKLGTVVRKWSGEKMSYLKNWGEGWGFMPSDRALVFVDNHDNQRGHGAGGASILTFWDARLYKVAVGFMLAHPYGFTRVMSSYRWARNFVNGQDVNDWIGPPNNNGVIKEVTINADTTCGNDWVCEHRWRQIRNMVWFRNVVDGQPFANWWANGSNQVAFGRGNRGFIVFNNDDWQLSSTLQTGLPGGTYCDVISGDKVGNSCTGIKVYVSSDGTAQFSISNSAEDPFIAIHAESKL
Description: α-Amylase inhibitory activity was determined according to Ibitoye et al. with slight modifications. […] The reaction in the mixture was terminated with a 1 mL dinitrosalicylate reagent before boiling for 10 min. The cooled mixture was diluted with 5 mL distilled water, and the absorbance was read at 540 nm. The inhibitory activity was calculated using the formula below: % Inhibition=1−Absorbance of compound/Absorbance of control×100

α-glucosidase [6] = target: T1, α-glucosidase; assay: Mode of α-glucosidase inhibition (enzyme kinetics, Lineweaver–Burk); assay type: biochemical; details: Lineweaver–Burk plots; inhibitor 0, 75, 150, 300 µM; pNPG
From the text: Understanding a drug’s mode of inhibiting its target is crucial to improve the drug’s activity profile and target specificity. Although orthosteric inhibition, in which the ligand binds at the target’s active site, dominates among currently available drugs, allosteric inhibitors (i.e., drugs binding at regions […] the active site) are desirable due to their reduced vulnerability to active site mutation or to displacement through native substrate overload at the active site. Accordingly, the mode of α-glucosidase inhibition was investigated for promising compounds 4b, 4i, 4j, 4k, 4l, 12k, and 12m, using a time-dependent para-nitrophenyl-[…] (pNPG) assay; the results are presented as Lineweaver–Burk plots (Figure 4). […] Conceivably, this can result in decreased systemic glucose concentration thus alleviating postprandial hyperglycemia and its associated complications.
The mode of inhibition of α-glucosidase of the 4b, 4i, 4j, 4k, 4l, 12k, and 12m compounds was determined using the method described by Kazeem et al. 2013, with modifications. Briefly, 50 µL of the 4b, 4i, 4j, 4k, 4l, 12k, and 12m compounds at (0 µM, 75 µM, 150 µM and 300 µM) concentrations were preincubated with 100 µL of α-glucosidase solution for 10 min at 25 °C in one set of tubes. In another set of tubes, α-glucosidase was preincubated with 50 µL of phosphate buffer (pH 6.9). 25 µL of pNPG at increasing concentrations (0.125–4.0 mg/mL) was added to both sets of solution to start the reaction. Immediately, the absorbance of the resulting solution was monitored for 2 min in a spectrophotometer at 405 nm. The amount of 4-nitrophenol released was determined from a 4-nitrophenol standard curve and then converted to reaction velocities.

α-glucosidase [7] = target: T1, α-glucosidase; set-up: method as in ref 22 (Taha et al.); details: ref 22 (Taha et al.), cited from earlier work
α-glucosidase [8] = target: T1, α-glucosidase; set-up: method as in ref 23 (Izgi et al.); details: ref 23 (Izgi et al.); read-out: α-glucosidase inhibition IC50; cited from earlier work
α-glucosidase [9] = target: T1, α-glucosidase; set-up: method as in ref 28 (Asemanipoor et al.); details: ref 28 (Asemanipoor et al.); read-out: α-glucosidase inhibition IC50; cited from earlier work

Compound | IC50 [1] [µM] | IC50 [2] [µM] | IC50 [3] [µM] | IC50 (α-glucosidase [4]) [µM] | IC50 [5] [µM] | mode of α-glucosidase inhibition (α-glucosidase [6]) | melting point [°C] | fold superior α-glucosidase inhibition compared with acarbose (α-glucosidase [7]) [fold] | IC50 (α-glucosidase [7]; read-out: α-glucosidase inhibition IC50) [µM] | IC50 (α-glucosidase [8]) [µM] | IC50 (α-glucosidase [9]) [µM]
Clc1ccc(CSc2nnc(COc3cccc4cccnc34)o2)cc1 [4l, 2-[(4-Chlorobenzyl)thio]-5-[(quinolin-8-yloxy)methyl]-1,3,4-oxadiazole] | 77.7 | > 500 | > 500 | 25.2 | > 500 | non-competitive | 101.4 to 104.2 |  |  |  | 
c1ccc(-n2cc(CSc3nnc(COc4cccc5cccnc45)o3)nn2)cc1 [12k, 2-{[(1-Phenyl-1H-1,2,3-triazol-4-yl)methyl]thio}-5-[(quinolin-8-yloxy)methyl]-1,3,4-oxadiazole] | 85.7 | > 500 | > 500 | 22.5 | > 500 | non-competitive | 122 to 128 |  |  |  | 
Fc1ccc(-n2cc(CSc3nnc(COc4cccc5cccnc45)o3)nn2)cc1 [12m, 2-{[(1-(4-Fluorophenyl)-1H-1,2,3-triazol-4-yl)methyl]thio}-5-[(quinolin-8-yloxy)methyl]-1,3,4-oxadiazole] | 88.7 | > 500 | > 500 | 26.8 | > 500 | non-competitive | 134 to 140 |  |  |  | 
O=C(N/N=C/c1ccc(O)c(O)c1)c1ccc(-c2nnc(-c3ccc4ncccc4c3)o2)cc1 [A] |  |  |  |  |  |  |  | 15 | 2.6 |  | 
c1ccc(-c2nnc(-c3c[nH]c4ncccc34)o2)cc1 [B] |  |  |  |  |  |  |  |  |  | 400 | 
CCc1ccc(NC(=O)Cn2cc(COc3ccc(-c4nc5ccccc5[nH]4)cc3)nn2)cc1 [C] |  |  |  |  |  |  |  |  |  |  | 35

Reference: article PMC9414972, “α-Glucosidase and α-Amylase Inhibitory Potentials of Quinoline–1,3,4-oxadiazole Conjugates Bearing 1,2,3-Triazole with Antioxidant Activity, Kinetic Studies, and Computational Validation” (Pharmaceuticals, 2022)
